{"source": "paper PMC5537699", "about": "(ACS Omega, 2017)", "key": {"[1]": {"molecular_target": "pig kidney Na+/K+-ATPase (PKE) (Sus scrofa, UniProt P05024)", "test": "Na+/K+-ATPase activity assay, purified pig kidney enzyme", "assay_type": "biochemical", "details": "for Ki: 1% DMSO, PKE-1 or PKE-2, optimal turnover conditions (Figure 3)"}, "[2]": {"molecular_target": "human kidney Na+/K+-ATPase (HKE) (Homo sapiens, UniProt P05023)", "test": "Na+/K+-ATPase activity assay, purified human kidney enzyme", "assay_type": "biochemical", "details": "for Ki: read-out: Ki, inhibition of Na+/K+-ATPase activity of HKE-1, HKE-1, 1% DMSO, optimal turnover conditions (Figure 4A)"}, "[3]": {"tested_on": "recombinant human kidney enzyme (Na+/K+-ATPase)", "details": "ref 14 (Katz et al., their Table 1); cited from earlier work"}, "[4]": {"details": "nearly constant levels by appropriate dosage regimens; cited from earlier work"}, "[5]": {"tested_on": "purified PKE (pig kidney Na+/K+-ATPase)", "details": "ref 11 (Laursen et al., their Figure 3); cited from earlier work"}, "[6]": {"details": "read-out: Ki, inhibition of Na+/K+-ATPase activity of PKE"}}, "note": "Read-outs that look alike come from different tables or passages of the source.", "data": [{"smiles": "C[C@]12CC[C@H](O)C[C@@]1(O)CC[C@@H]1[C@@H]2CC[C@]2(C)[C@@H](c3ccc(=O)oc3)C[C@H]3O[C@]132", "note": "[MBG, marinobufagenin]", "values": [{"measurement": "Ki", "setting": "[1]; [6]", "result": "1500 ± 120", "unit": "nM"}, {"measurement": "potency relative to ouabain in Na+/K+-ATPase activity assays", "setting": "[2]; HKE-1 (Figure 4A)", "result": "equally potent"}, {"measurement": "Ki", "setting": "[2]", "result": "1070 ± 40", "unit": "nM"}, {"measurement": "fold less potent than ouabain by relative binding constants", "setting": "[3]", "result": "about 200 fold"}]}, {"smiles": "C[C@H]1O[C@@H](O[C@H]2[C@@H](O)C[C@H](O[C@H]3[C@@H](O)C[C@H](O[C@H]4CC[C@@]5(C)[C@H](CC[C@@H]6[C@@H]5C[C@@H](O)[C@]5(C)[C@@H](C7=CC(=O)OC7)CC[C@]65O)C4)O[C@@H]3C)O[C@@H]2C)C[C@H](O)[C@@H]1O", "note": "[digoxin]", "values": [{"measurement": "Ki", "setting": "[1]; Ki, inhibition of Na+/K+-ATPase activity of PKE", "result": "1950 ± 150", "unit": "nM"}, {"measurement": "blood levels when used clinically", "setting": "[4]", "result": "0.64 to 1.15", "unit": "nM"}]}, {"smiles": "C[C@]12C[C@@H](O)[C@H]3[C@@H](CC[C@]4(O)C[C@@H](O)C[C@@H](O)[C@]34CO)[C@@]1(O)CC[C@@H]2C1=CC(=O)OC1", "note": "[ouabagenin]", "values": [{"measurement": "extent of inhibition of Na+/K+-ATPase activity", "setting": "[1]; PKE (Figure 3)", "result": "complete inhibition"}, {"measurement": "fold less potent than ouabain in Na+/K+-ATPase activity assays", "setting": "[1]; PKE (Figure 3)", "result": "about 3 fold"}, {"measurement": "Ki", "setting": "[1]; [6]", "result": "3070 ± 230", "unit": "nM"}, {"measurement": "Ki", "setting": "[2]", "result": "4400 ± 270", "unit": "nM"}, {"measurement": "extent of inhibition of the enzyme", "setting": "[5]", "result": "only a partial inhibitor"}, {"measurement": "fold less potent than ouabain by relative binding constants", "setting": "[5]", "result": "about 800 fold"}]}, {"smiles": "C[C@@H]1O[C@@H](O[C@H]2C[C@@H](O)[C@]3(CO)[C@H]4[C@H](O)C[C@]5(C)[C@@H](C6=CC(=O)OC6)CC[C@]5(O)[C@@H]4CC[C@]3(O)C2)[C@H](O)[C@H](O)[C@H]1O", "note": "[ouabain]", "values": [{"measurement": "preincubation time sufficient to obtain the maximal inhibitory effect", "setting": "[1]; PKE-1, incubation times 10–60 min, 0.25–1000 μM", "result": 10, "unit": "min"}, {"measurement": "ouabain sensitivity of large-scale PKE preparation versus single kidney PKEs", "setting": "[1]; large-scale PKE, specific activity 1035 μmol Pi mg–1 h–1, results not shown", "result": "not significantly different"}]}]}
